Assay results published in patent US20140323721A1, “HETEROCYCLIC COMPOUNDS AND USES THEREOF” (INTELLIKINE, LLC, priority 2011, published 2014).
Where two headings read alike, the source gives them in different places.

Legend:
PI3K α = PI3K α (Homo sapiens, UniProt P42336); experiment: PI 3-Kinase HTRF inhibition assay, PI3K α; assay type: biochemical; details: in vitro
Protocol: (§1) Commercial kits or systems for assaying PI3-K activities are available. The commercially available kits or systems can be used to screen for inhibitors and/or agonists of PI3-Ks including but not limited to PI 3-Kinase α, β, δ, and γ. Anr exemplary system is PI 3-Kinase (human) HTRF™ Assay from Upstate. […] Briefly, the assay is a time resolved FRET assay that indirectly measures PIP3 product formed by the activity of a PI3-K. The kinase reaction is performed in a microtitre plate (e.g., a 384 well microtitre plate). The total reaction volume is approximately 20 ul per well. In the first step, each well receives 2 ul of test compound in 20% dimethylsulphoxide resulting in a 2% DMSO final concentration. Next, approximately 14.5 ul of a kinase/PIP2 mixture (diluted in 1× reaction buffer) is added per well for a final concentration of 0.25-0.3 ug/ml kinase and 10 μM PIP2. The plate is sealed and incubated for 15 minutes at room temperature. To start the reaction, 3.5 ul of ATP (diluted in 1× reaction buffer) is added per well for a final concentration of 10 μM ATP. The plate is sealed and incubated for 1 hour at room temperature. The reaction is stopped by adding 5 ul of Stop Solution per well and then 5 ul of Detection Mix is added per well. The plate is sealed, incubated for 1 hour at room temperature, and then read on an appropriate plate reader. Data is analyzed and IC50s are generated using GraphPad Prism 5. For PI3K α, β, δ, and γ, the nM conentration of inhibitor to reach IC50 is provided. […] Similar assays, and others known in the art, can be used to measure the percent inhibition of other kinases, including but not limited to PI3K class II kinases, phosphoinositide 4 kinases (PI4K), and phosphoinositide 5 kinases (PI5K).

PI3K δ = PI3K δ (Homo sapiens, UniProt O00329); experiment: PI 3-Kinase HTRF inhibition assay, PI3K δ; assay type: biochemical; details: in vitro
PI3K δ, sequence (O00329 whole entry): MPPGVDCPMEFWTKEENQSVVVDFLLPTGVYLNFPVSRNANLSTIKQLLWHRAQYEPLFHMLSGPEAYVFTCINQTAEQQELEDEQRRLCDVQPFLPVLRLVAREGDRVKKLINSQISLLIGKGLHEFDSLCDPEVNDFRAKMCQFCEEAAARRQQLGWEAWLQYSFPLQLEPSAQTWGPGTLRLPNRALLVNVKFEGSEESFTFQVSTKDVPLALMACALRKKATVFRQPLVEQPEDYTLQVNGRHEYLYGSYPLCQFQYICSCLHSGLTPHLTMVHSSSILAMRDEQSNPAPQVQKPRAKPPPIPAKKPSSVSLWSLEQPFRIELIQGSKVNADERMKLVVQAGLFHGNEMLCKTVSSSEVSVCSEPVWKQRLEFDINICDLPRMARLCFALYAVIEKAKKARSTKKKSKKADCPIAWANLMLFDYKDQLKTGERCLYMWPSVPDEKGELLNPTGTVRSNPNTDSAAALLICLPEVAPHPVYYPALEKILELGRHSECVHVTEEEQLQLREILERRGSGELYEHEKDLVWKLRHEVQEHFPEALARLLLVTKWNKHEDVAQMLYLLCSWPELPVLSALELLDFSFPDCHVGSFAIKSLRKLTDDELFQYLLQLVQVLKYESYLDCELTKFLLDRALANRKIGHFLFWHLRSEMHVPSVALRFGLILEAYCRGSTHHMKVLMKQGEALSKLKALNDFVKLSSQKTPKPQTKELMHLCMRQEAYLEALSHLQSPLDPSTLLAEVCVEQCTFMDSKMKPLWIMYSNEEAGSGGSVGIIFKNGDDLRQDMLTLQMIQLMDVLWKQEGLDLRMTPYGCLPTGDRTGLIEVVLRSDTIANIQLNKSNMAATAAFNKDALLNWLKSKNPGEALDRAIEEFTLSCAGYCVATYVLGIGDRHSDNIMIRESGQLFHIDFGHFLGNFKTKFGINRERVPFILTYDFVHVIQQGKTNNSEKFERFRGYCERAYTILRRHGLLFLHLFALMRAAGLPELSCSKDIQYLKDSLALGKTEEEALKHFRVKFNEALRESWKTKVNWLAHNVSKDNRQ
PI3K δ, sequence (P27986 whole entry partner): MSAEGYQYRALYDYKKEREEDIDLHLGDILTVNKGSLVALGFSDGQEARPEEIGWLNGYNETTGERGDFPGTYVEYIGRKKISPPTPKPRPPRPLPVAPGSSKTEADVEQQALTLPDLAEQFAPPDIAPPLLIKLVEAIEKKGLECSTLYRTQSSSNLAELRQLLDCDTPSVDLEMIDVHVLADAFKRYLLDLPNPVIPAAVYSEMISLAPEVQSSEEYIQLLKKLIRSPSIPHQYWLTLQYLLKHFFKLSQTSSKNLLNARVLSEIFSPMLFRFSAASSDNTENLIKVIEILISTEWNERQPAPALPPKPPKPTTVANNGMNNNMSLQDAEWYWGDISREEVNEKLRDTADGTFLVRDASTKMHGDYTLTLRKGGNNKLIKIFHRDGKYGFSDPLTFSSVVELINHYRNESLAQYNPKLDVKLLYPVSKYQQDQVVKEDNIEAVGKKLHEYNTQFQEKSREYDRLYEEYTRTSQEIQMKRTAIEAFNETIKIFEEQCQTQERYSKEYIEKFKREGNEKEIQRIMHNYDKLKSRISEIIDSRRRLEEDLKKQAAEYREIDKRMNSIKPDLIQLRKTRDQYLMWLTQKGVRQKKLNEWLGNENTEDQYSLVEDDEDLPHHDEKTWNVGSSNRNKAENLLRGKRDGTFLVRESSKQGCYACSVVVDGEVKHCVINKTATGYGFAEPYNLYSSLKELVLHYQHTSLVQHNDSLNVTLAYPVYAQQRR
Protocol: as §1

PI3K β = PI3K β (Homo sapiens, UniProt P42338); experiment: PI 3-Kinase HTRF inhibition assay, PI3K β; assay type: biochemical
PI3K β, sequence (P42338 whole entry): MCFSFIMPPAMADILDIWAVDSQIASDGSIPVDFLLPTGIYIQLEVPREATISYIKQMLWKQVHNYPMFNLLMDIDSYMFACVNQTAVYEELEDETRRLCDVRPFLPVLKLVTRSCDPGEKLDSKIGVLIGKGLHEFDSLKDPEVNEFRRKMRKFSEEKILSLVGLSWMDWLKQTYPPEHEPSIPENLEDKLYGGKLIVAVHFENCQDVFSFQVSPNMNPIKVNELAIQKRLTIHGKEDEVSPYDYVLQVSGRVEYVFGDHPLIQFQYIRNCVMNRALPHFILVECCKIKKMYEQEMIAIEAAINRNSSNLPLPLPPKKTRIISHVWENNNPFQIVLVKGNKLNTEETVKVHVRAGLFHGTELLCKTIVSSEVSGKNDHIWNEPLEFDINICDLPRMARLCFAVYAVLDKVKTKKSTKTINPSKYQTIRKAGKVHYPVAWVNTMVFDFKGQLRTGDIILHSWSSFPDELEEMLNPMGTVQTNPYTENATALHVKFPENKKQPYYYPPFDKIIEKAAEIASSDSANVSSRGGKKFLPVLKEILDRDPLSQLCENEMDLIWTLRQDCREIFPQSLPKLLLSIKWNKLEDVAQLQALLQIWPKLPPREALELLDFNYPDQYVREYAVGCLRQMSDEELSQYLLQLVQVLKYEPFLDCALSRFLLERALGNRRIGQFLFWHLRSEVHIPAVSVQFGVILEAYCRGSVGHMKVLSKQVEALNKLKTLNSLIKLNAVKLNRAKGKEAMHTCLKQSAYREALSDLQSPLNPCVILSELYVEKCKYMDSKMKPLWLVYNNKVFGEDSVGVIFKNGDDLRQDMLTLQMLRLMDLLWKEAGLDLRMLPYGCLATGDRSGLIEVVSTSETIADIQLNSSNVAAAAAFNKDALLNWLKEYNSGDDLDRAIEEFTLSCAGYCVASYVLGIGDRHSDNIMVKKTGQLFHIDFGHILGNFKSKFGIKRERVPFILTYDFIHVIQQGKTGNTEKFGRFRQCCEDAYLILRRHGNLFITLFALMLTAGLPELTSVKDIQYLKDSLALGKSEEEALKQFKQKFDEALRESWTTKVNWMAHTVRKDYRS
PI3K β, sequence (P27986 whole entry partner): as the sequence (P27986 whole entry partner) above
Protocol: as §1

PI3K γ = PI3K γ (Homo sapiens, UniProt P48736); experiment: PI 3-Kinase HTRF inhibition assay, PI3K γ; assay type: biochemical; details: in vitro
PI3K γ, sequence (P48736 whole entry): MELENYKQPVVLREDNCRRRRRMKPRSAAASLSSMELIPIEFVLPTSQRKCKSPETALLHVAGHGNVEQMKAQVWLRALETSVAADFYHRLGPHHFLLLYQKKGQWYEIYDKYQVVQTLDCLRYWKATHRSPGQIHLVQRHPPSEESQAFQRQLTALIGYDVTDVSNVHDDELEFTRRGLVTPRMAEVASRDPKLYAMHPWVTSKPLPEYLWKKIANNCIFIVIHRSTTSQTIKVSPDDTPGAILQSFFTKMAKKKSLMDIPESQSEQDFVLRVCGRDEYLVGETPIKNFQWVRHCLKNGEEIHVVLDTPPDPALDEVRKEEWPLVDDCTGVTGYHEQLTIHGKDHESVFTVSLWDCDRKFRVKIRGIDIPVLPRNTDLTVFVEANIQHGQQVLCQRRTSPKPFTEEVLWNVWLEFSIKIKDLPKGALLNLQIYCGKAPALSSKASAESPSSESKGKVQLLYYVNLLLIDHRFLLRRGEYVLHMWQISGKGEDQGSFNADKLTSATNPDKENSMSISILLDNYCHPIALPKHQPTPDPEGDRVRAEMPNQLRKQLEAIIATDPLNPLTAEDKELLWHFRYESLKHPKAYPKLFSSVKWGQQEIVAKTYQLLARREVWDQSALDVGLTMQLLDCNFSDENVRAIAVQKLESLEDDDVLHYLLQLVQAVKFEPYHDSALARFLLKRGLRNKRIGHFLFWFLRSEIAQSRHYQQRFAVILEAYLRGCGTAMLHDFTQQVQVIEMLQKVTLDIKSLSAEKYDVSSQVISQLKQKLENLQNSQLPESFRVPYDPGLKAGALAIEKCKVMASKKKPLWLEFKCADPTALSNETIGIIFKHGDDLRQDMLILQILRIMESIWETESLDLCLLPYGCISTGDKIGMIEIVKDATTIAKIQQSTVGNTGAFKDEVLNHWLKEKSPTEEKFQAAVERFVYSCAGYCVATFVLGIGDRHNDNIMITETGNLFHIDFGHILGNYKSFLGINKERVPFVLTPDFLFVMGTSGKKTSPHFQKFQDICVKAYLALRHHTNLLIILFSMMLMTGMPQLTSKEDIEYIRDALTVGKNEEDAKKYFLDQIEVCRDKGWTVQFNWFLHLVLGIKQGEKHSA

MDA-MB-361 = MDA-MB-361 proliferation; assay type: cell-based; details: Homo sapiens; in vitro IC50, MDA-MB-361 cells
Protocol: The ability of one or more subject compounds to inhibit tumor cell line proliferation is determined according to standard procedures known in the art. For instance, an in vitro cellular proliferation assay can be performed to measure the metabolic activity of live cells. The assay is performed in a 96 well microtiter plate using Alamar Blue reduction. Human tumor cell lines are obtained from ATCC (e.g., MCF7, U-87 MG, MDA-MB-468, PC-3), grown to confluency in T75 flasks, trypsinized with 0.25% trypsin, washed one time with Tumor Cell Media (DMEM+10% FBS), and plated in 90 ul at 5,000 cells/well in Tumor Cell Media. A compound disclosed herein is diluted in Tumor Cell Media and added in a 10 ul volume. Plates are incubated for 72 hours at 37 C and 5% CO2. A volume of 10 uL of Alamar Blue reagent is added to each well and plates are incubated for 3 hours at 37 C and 5% CO2. Alamar Blue fluoresce is read at 560 Ex/590 Em, and IC50 values are calculated using GraphPad Prism 5.
Cells comprising one or more mutations in PI3Kα, including but not limited to breast cancer cells (e.g., MDA-MB-361 and T47D), and cells comprising one or more mutations in PTEN including but not limited to prostate cancer cells (e.g., PC3), are typically grown in cell growth media such as DMEM supplemented with fetal bovine serum and/or antibiotics, and grown to confluency. Cells are then treated with various concentrations of test compound for about 2 hours and subsequently lysed in cell lysis buffer. Lysates are subjected to SDS-PAGE followed by Western blot analysis to detect downstream signaling markers, including but not limited to pAKT(S473), pAKT(T308), pS6, and p4E-BP1. Degree of proliferation (and proliferation inhibition) can also be measured for cells at various doses of compound of the present invention.

[1] = in vitro, read-out: PI3K β IC50

PI3K α, sequence (P42336 whole entry): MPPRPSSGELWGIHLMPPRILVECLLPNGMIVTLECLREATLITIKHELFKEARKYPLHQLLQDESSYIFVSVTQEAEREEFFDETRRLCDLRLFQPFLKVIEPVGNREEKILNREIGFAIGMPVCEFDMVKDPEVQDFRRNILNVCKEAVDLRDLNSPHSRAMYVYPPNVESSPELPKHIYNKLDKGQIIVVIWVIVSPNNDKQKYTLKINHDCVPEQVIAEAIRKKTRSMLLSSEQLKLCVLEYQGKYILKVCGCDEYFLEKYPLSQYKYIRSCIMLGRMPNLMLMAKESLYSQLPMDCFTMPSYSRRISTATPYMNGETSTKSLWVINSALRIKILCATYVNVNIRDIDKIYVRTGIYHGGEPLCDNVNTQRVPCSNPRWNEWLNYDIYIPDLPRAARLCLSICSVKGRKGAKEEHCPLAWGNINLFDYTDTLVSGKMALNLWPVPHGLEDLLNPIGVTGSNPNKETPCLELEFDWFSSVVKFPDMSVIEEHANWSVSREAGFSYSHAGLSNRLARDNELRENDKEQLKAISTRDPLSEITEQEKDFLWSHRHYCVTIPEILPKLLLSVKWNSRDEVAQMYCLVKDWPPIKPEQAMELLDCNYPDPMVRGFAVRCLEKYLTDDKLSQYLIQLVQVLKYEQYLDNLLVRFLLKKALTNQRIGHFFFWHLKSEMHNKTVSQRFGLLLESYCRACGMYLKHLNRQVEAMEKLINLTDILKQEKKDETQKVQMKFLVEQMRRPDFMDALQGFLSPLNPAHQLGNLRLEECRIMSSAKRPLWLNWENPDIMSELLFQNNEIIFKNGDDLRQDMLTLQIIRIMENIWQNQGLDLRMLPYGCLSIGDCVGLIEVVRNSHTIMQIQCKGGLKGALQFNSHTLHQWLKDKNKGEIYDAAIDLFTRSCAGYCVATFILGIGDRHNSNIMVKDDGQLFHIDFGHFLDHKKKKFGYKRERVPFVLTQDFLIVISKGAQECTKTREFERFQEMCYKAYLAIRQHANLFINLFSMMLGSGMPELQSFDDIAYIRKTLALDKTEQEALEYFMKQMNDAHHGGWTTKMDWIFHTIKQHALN
PI3K α, sequence (P27986 whole entry partner): as the sequence (P27986 whole entry partner) above

SMILES	IC50 (PI3K α) [µM]	IC50 (PI3K δ) [µM]	IC50 (PI3K β; [1]) [µM]	IC50 (PI3K γ) [µM]	IC50 (MDA-MB-361) [µM]	IC50 (PI3K β) [µM]
CC(C)N1CCN(C2CN(c3cnc4ccc(-c5ccc6nc(N)[nH]c6c5)nc4c3)C2)CC1 [Compound 85]	< 0.1	> 10	> 10	> 10		
C[C@H]1CN(C2CN(c3cnc4ccc(-c5ccc6nc(N)[nH]c6c5)nc4c3)C2)CCN1C [Compound 89]	< 0.1	> 10	> 10	> 10		
Nc1nc2cc(-c3ccc4ncc(N5C6CCC5COC6)cc4n3)ccc2o1 [Compound 23]	< 0.1	> 10		< 0.1		
Nc1nc2cc(-c3ccc4ncc(N5CC(N6CC7CCC(C6)O7)C5)nc4n3)ccc2o1 [Compound 20]	< 1	> 10	> 10			
Nc1nc2cc(-c3ccc4ncc(N5CC6CCC(C5)O6)nc4n3)ccc2o1 [Compound 28]	< 0.1	> 10	> 10	< 1	< 1	
Nc1nc2cc(-c3ccc4ncc(N5C6CCC5COC6)nc4n3)ccc2o1 [Compound 19]	< 0.1	> 10	> 10	< 0.1	< 1	
Nc1nc2cc(-c3ccc4ncc(N5CC6CCC(C5)O6)cc4n3)ccc2o1 [Compound 59]	< 0.1	> 10	> 10	< 0.1	< 1	
Nc1nc2cc(-c3ccc4ncc(N5CC(N6C7CCC6COC7)C5)nc4n3)ccc2o1 [Compound 51]		> 10	> 10	> 10		
Nc1nc2cc(-c3cnc4ccc(N5C6CCC5COC6)nc4c3)ccc2o1 [Compound 81]		> 10				> 10
CN1CCN(C2CN(c3ccc4ncc(-c5ccc6oc(N)nc6c5)cc4n3)C2)CC1 [Compound 84]		> 10	> 10	> 10		
Nc1nc2cc(-c3ccc4ncc(N5CC(N6C7CCC6COC7)C5)cc4n3)ccc2o1 [Compound 67]	< 0.1		> 10	< 1	< 10	

Second part, led by results:

IC50 (PI3K α) [µM]	IC50 (PI3K δ) [µM]	IC50 (PI3K β; [1]) [µM]	IC50 (PI3K γ) [µM]	IC50 (MDA-MB-361) [µM]	SMILES	IC50 (PI3K β) [µM]
< 0.1	> 10	> 10	> 10		CCN1CCN(C2CN(c3cnc4ccc(-c5ccc6nc(N)[nH]c6c5)nc4c3)C2)CC1 [Compound 87]	
< 1	> 10	> 10			CC1CN(C2CN(c3cnc4ccc(-c5ccc6oc(N)nc6c5)nc4n3)C2)CCO1 (stereo not drawn) [Compound 18]	
< 0.1	> 10	> 10	> 10		CN1CCN(C2CN(c3cnc4ccc(-c5ccc6nc(N)[nH]c6c5)nc4c3)C2)CC1 [Compound 88]	
< 0.1	< 1	< 1	< 1	< 10	CN1CC2CN(c3cnc4ccc(-c5ccc6oc(N)nc6c5)nc4c3)CC2C1 (stereo not drawn) [Compound 79]	
< 0.1	< 0.1	< 1	< 1	< 0.1	CN1CCN(C2CN(c3cnc4ccc(-c5ccc6oc(N)nc6c5)nc4c3)C2)CC1(C)C [Compound 83]	
< 0.1	> 10	> 10	> 10		C[C@@H]1CN(C2CN(c3cnc4ccc(-c5ccc6nc(N)[nH]c6c5)nc4c3)C2)CCN1C [Compound 86]	
